From article PMC8597422, “Activity-based protein profiling reveals deubiquitinase and aldehyde dehydrogenase targets of a cyanopyrrolidine probe” (RSC Medicinal Chemistry, 2021)

Experiments:
[1] = molecular target: T1, Ubiquitin carboxy-terminal hydrolase L1 (UCHL1) (Homo sapiens, UniProt P09936); experiment: fluorescence polarization assay with Ub-Lys-TAMRA, […] min preincubation; covalent adduct by LC-ESI-MS; cellular HTRF; type: biochemical
T1 construct: recombinant UCHL1
T1 sequence (P09936 1-220): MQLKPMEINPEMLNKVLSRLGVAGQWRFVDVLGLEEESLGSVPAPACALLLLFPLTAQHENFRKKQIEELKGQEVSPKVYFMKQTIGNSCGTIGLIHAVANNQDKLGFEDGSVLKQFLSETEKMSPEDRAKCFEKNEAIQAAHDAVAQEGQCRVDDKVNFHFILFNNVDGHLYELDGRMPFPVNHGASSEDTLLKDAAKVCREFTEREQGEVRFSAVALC

ALDH2 [2] = molecular target: T2, ALDH2 (Homo sapiens, UniProt P05091); experiment: competitive ABPP against MT16-205 in HEK293 cells (LFQ proteomics); type: cell-based
T2 sequence (P05091 18-517): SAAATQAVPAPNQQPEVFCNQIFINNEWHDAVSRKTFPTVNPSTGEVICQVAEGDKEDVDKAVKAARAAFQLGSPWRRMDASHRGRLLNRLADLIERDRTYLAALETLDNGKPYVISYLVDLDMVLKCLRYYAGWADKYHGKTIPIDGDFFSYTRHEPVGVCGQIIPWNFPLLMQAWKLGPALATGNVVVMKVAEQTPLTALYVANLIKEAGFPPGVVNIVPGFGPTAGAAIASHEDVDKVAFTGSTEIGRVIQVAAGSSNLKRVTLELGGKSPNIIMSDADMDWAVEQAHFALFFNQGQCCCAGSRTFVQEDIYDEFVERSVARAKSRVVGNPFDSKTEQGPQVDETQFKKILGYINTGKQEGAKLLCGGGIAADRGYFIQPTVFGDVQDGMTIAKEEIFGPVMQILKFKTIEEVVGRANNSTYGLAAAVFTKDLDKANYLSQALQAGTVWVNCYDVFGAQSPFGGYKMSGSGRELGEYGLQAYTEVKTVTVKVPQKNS

USP30 = molecular target: T3, USP30 (Homo sapiens, UniProt Q70CQ3); experiment: DUB selectivity panel at […] (FP / FI in vitro assays); type: biochemical
T3 sequence (Q70CQ3 1-517): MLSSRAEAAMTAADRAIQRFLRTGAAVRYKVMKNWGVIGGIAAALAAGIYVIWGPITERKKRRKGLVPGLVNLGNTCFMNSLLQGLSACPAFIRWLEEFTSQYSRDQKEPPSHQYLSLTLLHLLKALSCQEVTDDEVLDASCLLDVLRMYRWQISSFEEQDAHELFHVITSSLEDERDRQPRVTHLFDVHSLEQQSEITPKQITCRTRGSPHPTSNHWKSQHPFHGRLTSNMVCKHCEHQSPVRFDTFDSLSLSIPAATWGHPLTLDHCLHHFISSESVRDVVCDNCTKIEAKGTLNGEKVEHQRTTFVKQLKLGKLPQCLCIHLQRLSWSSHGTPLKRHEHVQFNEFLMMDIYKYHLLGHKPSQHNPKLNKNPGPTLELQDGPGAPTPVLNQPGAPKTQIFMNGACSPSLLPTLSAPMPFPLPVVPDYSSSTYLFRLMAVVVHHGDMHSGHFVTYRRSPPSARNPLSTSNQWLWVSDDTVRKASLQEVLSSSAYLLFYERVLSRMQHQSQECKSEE

ALDH9A1 = ALDH9A1 (Homo sapiens, UniProt P49189); experiment: ABPP in HEK293 cells: streptavidin pulldown immunoblot and LFQ chemical proteomics; type: cell-based
ALDH2 [3] = molecular target: T2, ALDH2; experiment: ABPP in HEK293 cells, LFQ chemical proteomics, competed by MT16-001; type: cell-based
[4] = molecular target: T1, Ubiquitin carboxy-terminal hydrolase L1 (UCHL1); experiment: fluorescence polarization assay with Ub-Lys-TAMRA, […] min preincubation; covalent adduct by LC-ESI-MS; ABPP pulldown; type: biochemical

Chain of ALDH9A1 (P49189 whole entry): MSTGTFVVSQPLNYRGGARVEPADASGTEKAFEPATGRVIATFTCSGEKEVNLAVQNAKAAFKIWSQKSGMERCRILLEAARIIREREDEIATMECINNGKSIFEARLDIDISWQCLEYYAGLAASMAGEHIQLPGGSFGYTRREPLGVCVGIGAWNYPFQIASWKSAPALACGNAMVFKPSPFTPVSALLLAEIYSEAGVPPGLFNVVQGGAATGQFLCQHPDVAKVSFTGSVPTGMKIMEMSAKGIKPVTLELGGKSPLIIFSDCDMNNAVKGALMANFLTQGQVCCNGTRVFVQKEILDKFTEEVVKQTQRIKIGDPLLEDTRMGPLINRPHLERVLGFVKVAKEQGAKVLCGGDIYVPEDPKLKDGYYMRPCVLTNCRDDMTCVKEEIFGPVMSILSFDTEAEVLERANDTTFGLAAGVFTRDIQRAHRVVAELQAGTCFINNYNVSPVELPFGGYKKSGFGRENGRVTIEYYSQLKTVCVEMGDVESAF

N#CN1CC[C@H](C(=O)Nc2ncc(-c3ccccc3)s2)C1 [MT16-001]
IC50 [1]: 0.58 ± 0.025 µM | competitive ABPP against MT16-205 in HEK293 cells (LFQ proteomics) (ALDH2 [2]): Four targets, ALDH2, ALDH9A1, GATD3A and UCHL1, responded to parent compound MT16-001 in a concentration dependent manner.

N#CN1CC[C@H](C(=O)Nc2nc(-c3ccccc3)cs2)C1 [MT16-009]
inhibition at 1 µM (USP30): 50%

C#Cc1ccc(-c2cnc(NC(=O)[C@H]3CCN(C#N)C3)s2)cc1 [MT16-205]
ABPP in HEK293 cells: streptavidin pulldown immunoblot and LFQ chemical proteomi (ALDH9A1): also ALDH9A1, which was one of the off-targets of MT16-205 in HEK293 cells | ABPP in HEK293 cells, LFQ chemical proteomics, competed by MT16-001 (ALDH2 [3]): ALDH2, ALDH9A1, and GATD3A were confirmed as the genuine targets of MT16-001, MT16-205 and MT16-009 | IC50 [4]: 0.6 ± 0.078 µM
